Experimental data from PubChem BioAssay AID1918999 (Molecular Pharmacology Branch, DTP, NCI, 2023).
pIC50: −log10 of the molar value.

Tested on: 556581-035-R-J1-PDC complex spheroid growth
Assay: Anticancer human tumor 556581-035-R-J1-PDC patient-derived ovarian carcinoma cell line growth inhibition [AhR]
Conditions: for pIC50: curve of first compound; for viability, T/C: stronger effect = lower value
Procedure, shortened: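 Agents were dosed in half-log steps down from roughly clinical Cmax, or from 10 microM where Cmax was unknown, alone and with AhR antagonists. Read-out: percent test/control growth of tumor spheroids containing HUVEC and MSC stromal cells.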
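Wherever viability, T/C is given: compound exposure lasted 7 days; 100% = DMSO vehicle control growth.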

`CC(C)c1c(-c2ccccc2)nc2c(C#N)c[nH]n2c1=O` + Cc1cncc(-c2nc(NCCc3c[nH]c4ccccc34)c3ncn(C(C)C)c3n2)c1 was tested, and the pIC50 (second compound 0.1 µM) was < 5.00, the pIC50 (second compound 0.316 µM) was < 5.00 and the pIC50 (second compound 1 µM) was < 5.00. For the same compound, the pIC50 (second compound 3.16 µM) was < 5.00, the pIC50 (second compound 10 µM) was < 5.00 and the viability, T/C (second compound 0.1 µM, first compound 0.0316 µM) was 110%. It also gave a viability, T/C (second compound 0.1 µM, first compound 0.1 µM) of 106%, a viability, T/C (second compound 0.1 µM, first compound 0.316 µM) of 102% and a viability, T/C (second compound 0.1 µM, first compound 1 µM) of 103%. The viability, T/C (second compound 0.1 µM, first compound 3.16 µM) was 108%, the viability, T/C (second compound 0.1 µM, first compound 10 µM) was 88.5% and the viability, T/C (second compound 0.316 µM, first compound 0.0316 µM) was 106%. The viability, T/C (second compound 0.316 µM, first compound 0.1 µM) was 110%, the viability, T/C (second compound 0.316 µM, first compound 0.316 µM) was 96.9% and the viability, T/C (second compound 0.316 µM, first compound 1 µM) was 108%. The viability, T/C (second compound 0.316 µM, first compound 3.16 µM) was 95.6%, the viability, T/C (second compound 0.316 µM, first compound 10 µM) was 96.3% and the viability, T/C (second compound 1 µM, first compound 0.0316 µM) was 97.4%. For the same compound, the viability, T/C (second compound 1 µM, first compound 0.1 µM) was 107%, the viability, T/C (second compound 1 µM, first compound 0.316 µM) was 114% and the viability, T/C (second compound 1 µM, first compound 1 µM) was 102%. For the same compound, the viability, T/C (second compound 1 µM, first compound 3.16 µM) was 91.8%, the viability, T/C (second compound 1 µM, first compound 10 µM) was 102% and the viability, T/C (second compound 3.16 µM, first compound 0.0316 µM) was 98.6%. It also gave a viability, T/C (second compound 3.16 µM, first compound 0.1 µM) of 104%, a viability, T/C (second compound 3.16 µM, first compound 0.316 µM) of 99.2% and a viability, T/C (second compound 3.16 µM, first compound 1 µM) of 92.7%. The viability, T/C (second compound 3.16 µM, first compound 3.16 µM) was 95.5%, the viability, T/C (second compound 3.16 µM, first compound 10 µM) was 90.5% and the viability, T/C (second compound 10 µM, first compound 0.0316 µM) was 76.5%. It also gave a viability, T/C (second compound 10 µM, first compound 0.1 µM) of 84%, a viability, T/C (second compound 10 µM, first compound 0.316 µM) of 90% and a viability, T/C (second compound 10 µM, first compound 1 µM) of 71.1%. The viability, T/C (second compound 10 µM, first compound 3.16 µM) was 68.2% and the viability, T/C (second compound 10 µM, first compound 10 µM) was 70.7%.
